Reference: patent US20250381242A1 (INVAIO SCIENCES, INC., priority 2024, published 2025)
Positions of bridges follow the written chain, without caps; N, C: chain ends. Residues, ends and D or L forms follow the SMILES beside them. No end group written: not given here.

What was measured:
A. tumefaciens = conditions: 24 h, 10 μM
E. amylovora = conditions: 24 h, 10 μM
X. citri = experiment: Bacterial growth inhibition by OD600 absorbance, X. citri; format: cell-based, X. citri subsp. citri (ATCC 49118); conditions: peptide 10 μM, 24 hours at 30° C., OD 600 nm
Method: (§1) Antimicrobial activity of antimicrobial peptides was tested against the agricultural microbial pests A. tumefaciens, E. amylovora, E. coli, and X. citri, using OD absorbance measurement to detect bacterial growth.
(§2) Antimicrobial peptides were synthesized using solid phase peptide synthesis method and resuspended in 10% DMSO to a 1 mM stock concentration. The stock solution was aliquoted in cryovials and stored at −80° C.
(§3) An aliquot of 198 μl of the bacterial culture was added to each well in a 96-well plate and 2 μl of a 1 mM peptide stock solution was added to each well, for a final treatment concentration of 10 μM of a given peptide. Media only wells were included to control for contamination. The positive controls were 50 μg/ml oxytetracycline hydrochloride and 500 μg/ml streptomycin sulfate. A 0.1% DMSO treatment was included as a negative control.
(§4) An initial absorbance reading of the bacterial suspensions was taken at 600 nm. Then, the bacteria were grown in an incubator at 30° C. (A. tumefaciens, E. amylovora, X. citri) or 37° C. (E. coli) for 24 hours, after which the final absorbance reading was measured. Using the initial and final absorbance reading compared to negative and positive controls, the percent inhibition of the bacterial strain by given peptide treatment was determined.

E. coli = experiment: Bacterial growth inhibition by OD600 absorbance, E. coli; format: cell-based, E. coli (DH5-alpha); conditions: peptide 10 μM, 24 hours at 37° C., OD 600 nm
Method: as §1, §2, §3, §4

Molecule | growth inhibition, A. tumefaciens (A. tumefaciens) [%] | growth inhibition, E. amylovora (E. amylovora) [%] | growth inhibition, X. citri (X. citri) [%] | growth inhibition, E. coli (E. coli) [%]
C[C@@H](O)[C@H](NC(=O)[C@H](CS)NC(=O)[C@@H](N)Cc1c[nH]c2ccccc12)C(=O)N[C@@H](Cc1c[nH]c2ccccc12)C(=O)N[C@@H](CCCCN)C(=O)NCC(=O)N[C@@H](CCC(N)=O)C(=O)N1CCC[C@H]1C(=O)N[C@@H](CS)C(=O)N[C@@H](Cc1c[nH]c2ccccc12)C(=O)O [compound 3] (H-WCTWKGQPCW-OH; N-terminus and C-terminus assumed) | <90 | <90 |  | 
CC[C@H](C)[C@H](NC(=O)[C@H](CO)NC(=O)[C@H](CC(N)=O)NC(=O)[C@H](CC(C)C)NC(=O)[C@H](Cc1ccc(O)cc1)NC(=O)[C@H](CCCCN)NC(=O)[C@H](CCCCN)NC(=O)[C@@H](NC(=O)[C@H](C)NC(=O)[C@H](CCSC)NC(=O)[C@H](CCC(N)=O)NC(=O)[C@H](CCCCN)NC(=O)[C@H](CCCNC(=N)N)NC(=O)[C@H](CC(C)C)NC(=O)[C@H](CCCNC(=N)N)NC(=O)[C@@H](NC(=O)[C@H](Cc1ccc(O)cc1)NC(=O)[C@H](CC(N)=O)NC(=O)[C@H](CC(=O)O)NC(=O)[C@@H](NC(=O)[C@H](Cc1ccccc1)NC(=O)[C@@H](NC(=O)[C@H](C)NC(=O)[C@H](CC(=O)O)NC(=O)[C@H](CO)NC(=O)[C@@H](N)Cc1c[nH]cn1)C(C)C)[C@@H](C)O)[C@@H](C)O)C(C)C)C(=O)N[C@@H](CC(C)C)C(=O)N[C@@H](CC(N)=O)C(=O)O [compound 12] | <90 | <90 | 93.86 | <90
CC[C@H](C)[C@H](NC(=O)CNC(=O)[C@@H]1CCCN1C(=O)CNC(=O)[C@H](CC(C)C)NC(=O)[C@H](CC(N)=O)NC(=O)[C@H](C)NC(=O)[C@H](Cc1ccccc1)NC(=O)[C@H](CC(N)=O)NC(=O)[C@H](C)NC(=O)[C@H](CCCNC(=N)N)NC(=O)[C@H](Cc1ccccc1)NC(=O)[C@H](C)NC(=O)[C@@H](NC(=O)[C@H](CCCNC(=N)N)NC(=O)[C@H](Cc1c[nH]c2ccccc12)NC(=O)[C@H](Cc1ccc(O)cc1)NC(=O)[C@H](CC(=O)O)NC(=O)[C@H](C)NC(=O)[C@H](CC(C)C)NC(=O)CN)[C@@H](C)O)C(=O)N[C@@H](CCCNC(=N)N)C(=O)N[C@@H](CS)C(=O)N[C@@H](CCCCN)C(=O)N[C@@H](CO)C(=O)N[C@@H](C)C(=O)N[C@@H](CCCNC(=N)N)C(=O)N[C@@H](CS)C(=O)O [compound 18] (H-GLADYWRTAFRANFANLGPGIRCKSARC-OH; N-terminus and C-terminus assumed) | <90 | <90 |  | 
CC(C)C[C@H](NC(=O)[C@H](CCCCN)NC(=O)[C@H](C)NC(=O)[C@H](CC(C)C)NC(=O)[C@H](CCCCN)NC(=O)[C@H](CCCCN)NC(=O)[C@H](C)NC(=O)[C@H](CC(C)C)NC(=O)[C@H](CCCCN)NC(=O)[C@H](C)NC(=O)[C@H](CC(C)C)NC(=O)[C@H](CCCCN)NC(=O)[C@H](Cc1c[nH]cn1)NC(=O)[C@H](C)NC(=O)[C@@H](N)CC(=O)O)C(=O)N[C@@H](C)C(=O)N[C@@H](CCCCN)C(=O)O [compound 97] | <90 | <90 | <90 | <90
AAKAWLKLWAKAA [compound 135] | <90 | <90 | <90 | <90
AKLKAYPLKAKLYP [compound 114] | <90 | <90 | <90 | <90
AKRLKKLAKKIWKWK [compound 92] | 99.87 | 99.93 | <90 | <90
ALKSLLATLSKAKKKKLKTLLAALSK [compound 31] | 100.00 | 100.00 | 100.00 | <90
ALKSLLKTLSKAKAAKLKTLLKALSK [compound 30] | 100.00 | 100.00 | 100.00 | 98.52
ALWFTMLKKLGTMALHAGKAALGAAANTISQGTQ [compound 9] | 99.90 | 91.75 | 100.00 | <90
ALWKKLLKKLLKSAKKLG [compound 77] | 100.00 | 100.00 | 100.00 | 100.00
AMWKDVLKKIGTVALHAGKAALGAVADTISQ [compound 17] | 100.00 | <90 | 100.00 | <90
DCLSGRYKGPCAVWDNETCRRVCKEEGRSSGHCSPSLKCWCEGC (disulfide 2-44, 11-33, 19-39, 23-41) [compound 145] | <90 | <90 |  | 
DLWNSIKDMAAAAGRAALNAVTGMVNQ [compound 29] | <90 | <90 | <90 | <90
FAKKLAKKLKKLAKKLAK [compound 80] | 98.82 | 100.00 | <90 | <90
FFHHIFRGIVHVGKTKHRLVTG [compound 37] | <90 | <90 | <90 | <90
FFHHIKRGIKHVGKTIHRLVTG [compound 38] | <90 | 100.00 | 100.00 | <90

Molecule | growth inhibition, A. tumefaciens (A. tumefaciens) [%] | growth inhibition, E. amylovora (E. amylovora) [%] | growth inhibition, X. citri (X. citri) [%] | growth inhibition, E. coli (E. coli) [%]
FKKLKKLFKKILKLK [compound 95] | 99.80 | 100.00 | <90 | <90
FKKLKKLFSKLWNWK [compound 84] | 100.00 | 100.00 | <90 | 96.39
FKVQNQHGQVVKIFHH [compound 89] | <90 | <90 | <90 | <90
FPFLKLSLKIPKSAIKSAIKRL [compound 1] | <90 | <90 | <90 | <90
FQWQRNMRKVR [compound 124] | <90 | <90 | <90 | <90
FRIRVRVAKKFGKAFVGEIM [compound 64] | <90 | <90 | <90 | <90
GFWGKLWKPVKKAI [compound 107] | <90 | <90 | <90 | <90
GIKFFLKKLKKHI [compound 115] | <90 | <90 | 100.00 | <90
GLWSKIKEVGKEAAKAAAKAAGKAALGAVSEAV [compound 16] | 100.00 | 100.00 | 100.00 | 100.00
GMWSKILGHLIR [compound 137] | <90 | 100.00 | <90 | <90
GWASSIGSILGKFAKGGAQAFLQPK [compound 44] | <90 | <90 | <90 | <90
GWGDTFLKTMAKIAKVGPKLLHS [compound 48] | <90 | <90 | <90 | <90
GWRTLLKKAEVKTVGKLALKHYL [compound 32] | <90 | <90 | <90 | <90
IGKLFKRIVQRILKFLRNL [compound 63] | <90 | <90 | <90 | 97.14
ILKKIWKPIKKLF [compound 109] | <90 | <90 | <90 | <90
ILKKLLKKVKSI [compound 136] | <90 | <90 | <90 | <90
